Earlier results as cited in US9688630B2, “3,3′-disubstituted indolines as inhibitors of cholesterol ester transfer protein” (Merck Sharp & Dohme Corp., priority 2013, dated 2017).

Conditions: torcetrapib and atorvastatin concomitantly, compared with atorvastatin alone; cited from earlier work

CCOC(=O)N1c2ccc(C(F)(F)F)cc2[C@@H](N(Cc2cc(C(F)(F)F)cc(C(F)(F)F)c2)C(=O)OC)C[C@H]1CC [torcetrapib]
incidence of mortality: higher incidence of mortality
